What was measured:
R0052 probiotic strain = experiment: Microbiological test, CFU count in Petri dish with SAMe; assay type: cell-based, Lactobacillus helveticus; conditions: SAMe marketed formulation 500 mg dose, vs probiotic strain only
Protocol: (§1) 1.2 MICROBIOLOGICAL TEST: within the bio-compatibility study a microbiological evaluation was carried out. R0052 and R0175 probiotic strains were cultured in a Petri dish, in the presence of the active (SAMe, marketed formulation) at a 500 mg dose (as above). A sample was also analyzed as a reference of probiotic strain only, so that it could be compared with the addition of the active on the result in Colony-Forming Units (CFU). […] This is easily justified by the simple analytical error, known in the microbiological field.

[1] = cited from earlier work
R0175 probiotic strain = experiment: Microbiological test, CFU count in Petri dish with SAMe; assay type: cell-based, Bifidobacterium longum; conditions: SAMe marketed formulation 500 mg dose, vs probiotic strain only
Protocol: as §1

[2] = tested on: Lactobacillus helveticus R0052; experiment: Liquid compatibility method (pH monitoring of strain growth with SAMe); assay type: cell-based
Protocol: The study was carried out in a first phase with SAMe+Lactobacillus helveticus R0052, not microencapsulated, through a liquid compatibility method. The initial population tested was 15.10^E9 CFU/g units at 500 mg of SAMe. For this evaluation a pHmeter with 8 probes was used, and values were verified every 15 minutes.
The strains are inoculated into a liquid medium suitable for their growth, only under […] conditions (reason why in this way the Bifidobacterium is not tested), and the active substance is inoculated into the sample and not into the control.
From an operational point of view: the vial is filled with the liquid medium (50 ml RCM); the active, which should have been tested directly in its granulated form in the vial, is added, and it is mixed. Then the pH of the medium in the presence of the active is verified, if necessary, the pH is adjusted so that it is comprised between 6.5 and 7. R0052 strain is therefore inoculated (batch U12171600, 500.10^E9 CFU/g) into the vial. The sample is diluted 1/100 with Dilumat to obtain a dilution to 5.10^E9 CFU/ml and finally it is inoculated with 3 ml into the 50 ml RCM vial, obtaining […]. The vial is placed in warm bath, at 37°, and the pH started to be recorded for 18 hours.

## C[S+](CC[C@H](N)C(=O)O)C[C@H]1O[C@@H](n2cnc3c(N)ncnc32)[C@H](O)[C@@H]1O (some centres unmarked) [SAMe, S-adenosyl methionine]
R0052 probiotic strain
  Modification of CFU count: up to 5%
[1]; oral intake
  Plasma levels of the unmodified molecule: 5-10 % of the administered dose
[1]; parenteral (intravenous or intramuscular) route
  Plasma bioavailability: 90-100 % of the administered dose
R0175 probiotic strain
  Modification of CFU count: up to 5%
[2]; 500 mg SAMe, RCM medium, 37°, after pH decrease over 18 hours recording
  pH of medium, R0052 in contact with SAMe, final: 4.2
[2]; 500 mg SAMe, RCM medium, 37°, start of 18 hours recording
  pH of medium, R0052 in contact with SAMe, initial: 7.2
[2]; conclusion from acidification
  Compatibility of L. helveticus R0052 strain with SAMe: compatible
[2]; without strain, RCM medium, 37°, remains essentially unchanged
  pH of the active (SAMe) alone: 7-7.5

From patent US20230330125A1, “ORAL COMPOSITION COMPRISING S-ADENOSYL METHIONINE AND A PROBIOTIC AND ITS USE FOR TREATING AND/OR PREVENTING MOOD DISORDERS” (Montefarmaco OTC S.p.A., priority 2020, published 2023)
